Measurements taken from article PMC6582431 (Chemmedchem, 2018).

What was measured:
FAAH [1] = biological target: T1, FAAH (Mus musculus, UniProt O08914); assay: In vivo FAAH inhibition, liver, after oral administration to mice
T1 sequence (O08914 1-579): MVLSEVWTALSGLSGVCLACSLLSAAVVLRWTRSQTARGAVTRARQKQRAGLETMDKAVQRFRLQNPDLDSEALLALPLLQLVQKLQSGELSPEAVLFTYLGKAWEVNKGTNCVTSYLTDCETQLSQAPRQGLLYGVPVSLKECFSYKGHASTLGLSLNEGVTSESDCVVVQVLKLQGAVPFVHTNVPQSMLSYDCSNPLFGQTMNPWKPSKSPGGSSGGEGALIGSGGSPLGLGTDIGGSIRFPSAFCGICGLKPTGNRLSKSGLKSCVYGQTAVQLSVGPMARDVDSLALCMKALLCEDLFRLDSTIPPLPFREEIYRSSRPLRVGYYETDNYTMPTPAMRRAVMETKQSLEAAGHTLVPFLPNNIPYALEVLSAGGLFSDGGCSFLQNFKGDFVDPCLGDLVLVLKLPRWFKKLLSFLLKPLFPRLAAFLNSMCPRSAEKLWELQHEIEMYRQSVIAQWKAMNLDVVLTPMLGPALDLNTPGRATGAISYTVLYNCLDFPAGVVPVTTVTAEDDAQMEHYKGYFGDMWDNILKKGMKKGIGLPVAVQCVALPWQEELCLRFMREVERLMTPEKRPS

[2] = CYP450 metabolic stability, mouse liver microsomes; type: in vitro ADME; conditions: 1 h incubation; for CYPs (50 μM), percentage remaining: C inhib=50 μM in mouse liver microsomes
carboxylesterases (CEs) = assay: CE activity in rat liver microsomes; type: biochemical; conditions: for CEs (10 μM), percent of control: 10 μM in rat liver microsomes, Table 4; for CEs activity, percent of control: C inhib=10 μM in rat liver microsomes, Table 2
FAAH [3] = biological target: T1, FAAH; assay: In vivo FAAH inhibition, brain, after oral administration to mice
[4] = CYP450 metabolic stability, primate liver microsomes; type: in vitro ADME; conditions: 5 μM in liver microsomes, 1 h incubation
[5] = CYP450 metabolic stability, rat liver microsomes; type: in vitro ADME; conditions: 5 μM in liver microsomes, 1 h incubation
[6] = CYP450 metabolic stability, dog liver microsomes; type: in vitro ADME; conditions: 5 μM in liver microsomes, 1 h incubation
[7] = CYP450 metabolic stability, human liver microsomes; type: in vitro ADME; conditions: 5 μM in liver microsomes, 1 h incubation
MAGL = biological target: T2, MAGL (Rattus norvegicus, UniProt Q8R431); assay: MAGL activity in rat cerebellum cytosol; type: biochemical; conditions: for MAGL (100 μM), percent of control / MAGL activity, percent of control: C inhib=100 μM in rat cerebellum cytosol; for MAGL (100 μM), percent of control: Table 4; for MAGL activity, percent of control: Table 2
T2 sequence (Q8R431 1-303): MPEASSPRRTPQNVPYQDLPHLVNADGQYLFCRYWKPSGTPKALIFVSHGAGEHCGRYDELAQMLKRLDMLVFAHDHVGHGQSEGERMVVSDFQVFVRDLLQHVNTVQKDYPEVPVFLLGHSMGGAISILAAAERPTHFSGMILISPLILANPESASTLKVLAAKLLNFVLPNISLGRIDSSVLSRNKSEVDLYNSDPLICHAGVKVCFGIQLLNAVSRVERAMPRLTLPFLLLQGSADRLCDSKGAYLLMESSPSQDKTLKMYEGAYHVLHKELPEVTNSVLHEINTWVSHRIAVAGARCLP

FAAH [8] = biological target: T3, FAAH (Rattus norvegicus, UniProt P97612); assay: In vitro FAAH activity in rat brain homogenates/membranes; type: biochemical; conditions: rat brain homogenates, 15 min pre-incubation, Table 2
T3 sequence (P97612 1-579): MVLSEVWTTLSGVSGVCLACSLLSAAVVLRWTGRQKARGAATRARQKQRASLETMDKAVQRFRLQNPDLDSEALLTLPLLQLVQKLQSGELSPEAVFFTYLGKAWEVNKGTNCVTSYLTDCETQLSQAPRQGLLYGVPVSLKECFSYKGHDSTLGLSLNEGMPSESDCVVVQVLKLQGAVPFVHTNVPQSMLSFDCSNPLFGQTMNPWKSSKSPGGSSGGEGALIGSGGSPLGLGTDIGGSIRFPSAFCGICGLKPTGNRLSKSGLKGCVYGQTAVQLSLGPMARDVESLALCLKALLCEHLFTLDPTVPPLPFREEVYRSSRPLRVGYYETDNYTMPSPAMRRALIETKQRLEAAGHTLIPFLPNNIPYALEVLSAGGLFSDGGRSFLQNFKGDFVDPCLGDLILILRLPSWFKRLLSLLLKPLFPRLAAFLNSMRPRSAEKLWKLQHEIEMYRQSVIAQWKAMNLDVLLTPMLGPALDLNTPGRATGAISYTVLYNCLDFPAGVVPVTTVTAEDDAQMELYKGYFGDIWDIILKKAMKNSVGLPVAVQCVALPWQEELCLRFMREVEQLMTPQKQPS

[9] = 0.1 mg kg^−1 p.o. in mice, 8 h after administration, Table 4
[10] = 0.1 mg kg^−1, mouse, p.o., text b31
[11] = 0.1 mg kg^−1 p.o., mice, post-dose
[12] = 30 mg kg^−1 p.o. in mice, 1 h after administration, Table 2

| Liver FAAH activity, percent of control (FAAH [1]; [9]) | CYPs (50 μM), percentage remaining [2] | Brain FAAH activity, percent of control (FAAH [3]; [9]) | MAGL (100 μM), percent of control (MAGL) | FAAH activity, percent of control, 10 nM (FAAH [8]) | FAAH activity, percent of control, 100 nM (FAAH [8]) | Liver FAAH activity, percent of control (FAAH [1]; [12]) | MAGL activity, percent of control (MAGL) | Brain FAAH activity, percent of control (FAAH [3]; [12]) | Compound | CEs (10 μM), percent of control (carboxylesterases (CEs)) | CEs activity, percent of control (carboxylesterases (CEs)) | also measured |
| --- | --- | --- | --- | --- | --- | --- | --- | --- | --- | --- | --- | --- |
| 54±6% of control | 73±2 percentage remaining | 76±18% of control | – | – | – | – | – | – | CC1(C)COCN1C(=O)n1nnc2ccc(-c3ccccc3)cc21 [Compound 11 d, (4,4‐Dimethyloxazolidin‐3‐yl)(6‐phenyl‐1H‐benzo[d][1,2,3]triazol‐1‐yl)methanone] | 92±2% of control | – | – |
| 6±1% of control | 67±2 percentage remaining | 6±1% of control | 96±2% of control | – | – | – | – | – | CC1(C)COCN1C(=O)n1nnc2cc(C(N)=O)ccc21 [Compound 11 h, 1‐(4,4‐Dimethyloxazolidine‐3‐carbonyl)‐1H‐benzo[d][1,2,3]triazole‐5‐carboxamide] | 81±7% of control | – | CYP450 metabolic stability, Primate, percent of remaining [4]: 57±3% of remaining; in vivo FAAH inhibitory activity, liver (FAAH [1]; [10]): > 90 % of control; time of maximum inhibitory effect in the liver (FAAH [1]; [11]): 1 h; ED50 (FAAH [1]; mouse, po, 8 h, read-out: ED50 liver FAAH): 7 µg/kg; inhibition at 0.1 mg/kg (FAAH [1]; mouse, po, read-out: peripheral inhibition of FAAH sustained over the next 7 h): > 90%; CYP450 metabolic stability, Mouse, percent of remaining ([2]; 5 μM in liver microsomes): 87±9% of remaining; CYP450 metabolic stability, Rat, percent of remaining [5]: 87±0% of remaining; CYP450 metabolic stability, Dog, percent of remaining [6]: 101±6% of remaining; CYP450 metabolic stability, Human, percent of remaining [7]: 96±8% of remaining; selectivity over MAGL (MAGL; text b31): > 80 % of control; selectivity over CEs (carboxylesterases (CEs); text b31): > 80 % of control; in vivo FAAH inhibitory activity, brain (FAAH [3]; [10]): > 90 % of control; time of maximal inhibitory effect in the brain (t max) (FAAH [3]; [11]): 1 h; ED50 cerebral FAAH (FAAH [3]; mice, p.o., 0.001 to 3 mg kg^−1, 8 h post-administration): 14 µg/kg |
| – | – | – | – | 1±0% of control | 1±2% of control | 1±0% of control | 73±3% of control | 0±0% of control | CN(C(=O)n1nnc2ccccc21)C1CCCCC1 [Compound 10 k] | – | 30±1% of control | – |
| – | – | – | – | 0±0% of control | 0±0% of control | 15±4% of control | 7±4% of control | 20±5% of control | Cl.O=C(N1CCN(Cc2ccccc2)CC1)n1nnc2ccccc21 [Compound 10 i] | – | 27±1% of control | – |
| – | – | – | – | 0±0% of control | 0±0% of control | 6±1% of control | 7±5% of control | 8±1% of control | O=C(N1CCC(Cc2ccccc2)CC1)n1nnc2ccccc21 [Compound 10 h] | – | 24±2% of control | – |
| 16±6% of control | 8±2 percentage remaining | 77±29% of control | 67±12% of control | – | – | – | – | – | CC1(C)COCN1C(=O)n1nnc2ccc(Br)cc21 [Compound 11 b, (6‐Bromo‐1H‐benzo[d][1,2,3]triazol‐1‐yl)(4,4‐dimethyloxazolidin‐3‐yl)methanone] | 73±9% of control | – | – |
